We go through 26 compounds from patent US20120122903A1, “1-H-QUINAZOLINE-2, 4-DIONES FOR USE IN THE TREATMENT OF NEURONAL CEROID LIPOFUSCINOSIS” (priority 2009, published 2012).

Test [1] deals with OF1 mice. The experiment in a line: Murine maximal electroshock test (MES test). The class given is in vivo, mouse. The note with it: for ED50: Mus musculus, po, pre-treatment time 1 h; for MES-Test (1 h, po) % protection @ 50: p.o., percentage of protected mice, printed '@ 50' (mg/kg). As for the experimental part: Compounds of the invention were tested in OF1 mice using the maximal electroshock test (MES Test) described in detail by Schmutz et al., Naunyn-Schmiedeberg's Arch Pharmacol 1990, 342, 61-66. Briefly, generalized tonic-clonic convulsions of the hind extremities were induced by passing electrical current through temporal electrodes (50 Hz, 18 mA, 0.2 s). […] 30 mg/kg carbamazepine was used as a positive control; mice were classified as protected by a compound if the duration of the seizure lasted only 3 second or less. Five mice were used for each treatment condition and the percentage of protected mice was used as readout (i.e. a compound could give 0%, 20%, 40%, 60%, 80% or 100% protection). Compounds of the invention were given at a dose of 50 mg/kg, p.o., 1 hour prior to induction of convulsions (i.e. “pre-treatment time−1 h”).
ED50 values (ED: effective dose) were calculated using GraphPad Prism, v4.02.
15 s after shock administration, mouse blood was collected for determination of compounds' blood exposure.

In the next test the test system is mouse. Nature of the test: Oral activity in vivo (audiogenic mouse test and/or MES test). The following applies: oral administration. As for the experimental part: The oral bioavailability was tested using the audiogenic mouse test (Audiogenic seizures, R. L. Collins; Chapter 14, pages: 347-372. In: Experimental Models of Epilepsy; By: Pupura, Penry, Tower, Woodbury, Waiter, Raven Press, New York, 1972. Standard Book Number: 0-911216-26-X) and/or the MES test.

Test [2] relates to OF1 mice. Nature of the test: Murine maximal electroshock test (MES test). The test is classed as in vivo, mouse. The note with it: p.o., percentage of protected mice, printed '@ 20' (mg/kg).

In the case of `CCC(OC(C)C)c1cc2c(=O)n(NS(C)(=O)=O)c(=O)[nH]c2cc1C(F)(F)F` (stereo not drawn) [Compound A-7, N-[6-(1-Isopropoxy-propyl)-2,4-dioxo-7-trifluoromethyl-1,4-dihydro-2H-quinazolin-3-yl]-methanesulfonamide], the ED50 with OF1 mice [1] was determined as 24.7 mg/kg. Moreover, the “In vivo orally active” value in the test on mouse is on record as “Yes”.

`CC(F)c1cc2[nH]c(=O)n(NS(C)(=O)=O)c(=O)c2cc1-c1ccnn1C(C)C` (stereo not drawn) [Compound C-17, N-[7-(1-fluoro-ethyl)-6-(2-isopropyl-2H-pyrazol-3-yl)-2,4-dioxo-1,4-dihydro-2H-quinazolin-3-yl]-methanesulfonamide]: in the test on OF1 mice [1], the ED50 was more than 20 mg/kg. For the same compound, the “In vivo orally active” value in the test with mouse is given as “Yes”. The corresponding values for `CCOC(C)c1cc2c(=O)n(NS(C)(=O)=O)c(=O)[nH]c2cc1C(F)(F)F` (stereo not drawn) [Compound A-5, N-[6-(1-Ethoxy-ethyl)-2,4-dioxo-7-trifluoromethyl-1,4-dihydro-2H-quinazolin-3-yl]-methanesulfonamide] are 8.8 mg/kg and “Yes”. For the compound `CC(O)c1cc2c(=O)n(NS(C)(=O)=O)c(=O)[nH]c2cc1C(F)(F)F` (stereo not drawn) [Compound A-1, N-[6-(1-Hydroxy-ethyl)-2,4-dioxo-7-trifluoromethyl-1,4-dihydro-2H-quinazolin-3-yl]-methanesulfonamide], the ED50 in the test with OF1 mice [1] came to 64 mg/kg. In addition, in the test with mouse, the “In vivo orally active” value was “Yes”. Take `COCCC(O)c1cc2c(=O)n(NS(C)(=O)=O)c(=O)[nH]c2cc1C(F)(F)F` (stereo not drawn) [Compound A-18, N-[6-(1-Hydroxy-3-methoxy-propyl)-2,4-dioxo-7-trifluoromethyl-1,4-dihydro-2H-quinazolin-3-yl]-methanesulfonamide]: the “In vivo orally active” value in the test with mouse is given as “Yes”.

For the compound `CCCC(O)c1cc2c(=O)n(NS(C)(=O)=O)c(=O)[nH]c2cc1C(F)(F)F` (stereo not drawn) [Compound A-15, N-[6-(1-Hydroxy-butyl)-2,4-dioxo-7-trifluoromethyl-1,4-dihydro-2H-quinazolin-3-yl]-methanesulfonamide], in the test on OF1 mice [1], the 50% effective dose (ED50) came out at 35 mg/kg. Moreover, the “In vivo orally active” value in the test with mouse is “Yes”. On to `CS(=O)(=O)Nn1c(=O)[nH]c2cc(C(F)(F)F)c(-c3ccnn3O)cc2c1=O` [Compound C-5, N-[6-(2-Hydroxy-2H-pyrazol-3-yl)-2,4-dioxo-7-trifluoromethyl-1,4-dihydro-2H-quinazolin-3-yl]-methanesulfonamide], for which, in the test on mouse, the “In vivo orally active” value is listed as “Yes”. For the compound `Cn1nccc1-c1cc2c(=O)n(NS(C)(=O)=O)c(=O)[nH]c2cc1C(F)F` [Compound C-9, N-[7-Difluoromethyl-6-(2-methyl-2H-pyrazol-3-yl)-2,4-dioxo-1,4-dihydro-2H-quinazolin-3-yl]-methanesulfonamide], the ED50 in the test with OF1 mice [1] was found to be 7.5 mg/kg. For the same compound, the “In vivo orally active” value in the test with mouse is “Yes”. Consider `CCc1cc2[nH]c(=O)n(NS(C)(=O)=O)c(=O)c2cc1-c1ccnn1C(C)C` [Compound C-6, N-[7-Ethyl-6-(2-isopropyl-2H-pyrazol-3-yl)-2,4-dioxo-1,4-dihydro-2H-quinazolin-3-yl]-methanesulfonamide], for which the “MES-Test (1 h, po) % protection @ 50” value in the test with OF1 mice [1] came out at 20% @ 50^. Also, the “In vivo orally active” value with mouse is reported as “yes”. Take `CCOC(CC)c1cc2c(=O)n(NS(C)(=O)=O)c(=O)[nH]c2cc1C(F)(F)F` (stereo not drawn) [Compound A-13, N-[6-(1-Ethoxy-propyl)-2,4-dioxo-7-trifluoromethyl-1,4-dihydro-2H-quinazolin-3-yl]-methanesulfonamide]: the “In vivo orally active” value in the test on mouse is “Yes”.

For the compound `CC(C)c1cc2[nH]c(=O)n(NS(C)(=O)=O)c(=O)c2cc1-c1ccnn1C(C)C` [Compound C-8, N-[7-Isopropyl-6-(2-isopropyl-2H-pyrazol-3-yl)-2,4-dioxo-1,4-dihydro-2H-quinazolin-3-yl]-methanesulfonamide], the “MES-Test (1 h, po) % protection @ 50” value with OF1 mice [1] was 40% @ 50^. Further, in the test on mouse, the “In vivo orally active” value is “yes”. In the case of `CS(=O)(=O)Nn1c(=O)[nH]c2cc(C(F)(F)F)c(C3CCCO3)cc2c1=O` (stereo not drawn) [Compound B-2, N-[2,4-Dioxo-6-(tetrahydro-furan-2-yl)-7-trifluoromethyl-1,4-dihydro-2H-quinazolin-3-yl]-methanesulfonamide], in the test with mouse, the “In vivo orally active” value is reported as “Yes”. As to `CC(C)n1nccc1-c1cc2c(=O)n(NS(C)(=O)=O)c(=O)[nH]c2cc1C(F)F` [Compound C-10, N-[7-Difluoromethyl-6-(2-isopropyl-2H-pyrazol-3-yl)-2,4-dioxo-1,4-dihydro-2H-quinazolin-3-yl]-methanesulfonamide], the ED50 in the test with OF1 mice [1] was 20.3 mg/kg. In the test on mouse, the “In vivo orally active” value was “Yes”. The corresponding values for `CC(C)n1nccc1-c1cc2c(=O)n(NS(C)(=O)=O)c(=O)[nH]c2cc1C(F)(F)F` [Compound C-2, N-[6-(2-Isopropyl-2H-pyrazol-3-yl)-2,4-dioxo-7-trifluoromethyl-1,4-dihydro-2H-quinazolin-3-yl]-methanesulfonamide] are 17.7 mg/kg and “Yes”. With `COCCn1nccc1-c1cc2c(=O)n(NS(C)(=O)=O)c(=O)[nH]c2cc1C(F)(F)F` [Compound C-4, N-{6-[2-(2-Methoxy-ethyl)-2H-pyrazol-3-yl]-2,4-dioxo-7-trifluoromethyl-1,4-dihydro-2H-quinazolin-3-yl}-methanesulfonamide], the “In vivo orally active” value with mouse is given as “Yes”. As to `Cn1nccc1-c1cc2c(=O)n(NS(C)(=O)=O)c(=O)[nH]c2cc1C(C)(F)F` [Compound C-15, N-[7-(1,1-difluoro-ethyl)-6-(2-methyl-2H-pyrazol-3-yl)-2,4-dioxo-1,4-dihydro-2H-quinazolin-3-yl]-methanesulfonamide], in the test on OF1 mice [2], the “MES-Test (1 h, po) % protection @ 20” value is given as 80% @ 20^. Besides, in the test with mouse, the “In vivo orally active” value is recorded as “Yes”.

Take `CCC(O)c1cc2c(=O)n(NS(C)(=O)=O)c(=O)[nH]c2cc1C(F)(F)F` (stereo not drawn) [Compound A-3, N-[6-(1-Hydroxy-propyl)-2,4-dioxo-7-trifluoromethyl-1,4-dihydro-2H-quinazolin-3-yl]-methanesulfonamide]: the ED50 with OF1 mice [1] turned out to be 19.6 mg/kg. Also, in the test with mouse, the “In vivo orally active” value was “Yes”. Take `CC(C)n1nccc1-c1cc2c(=O)n(NS(C)(=O)=O)c(=O)[nH]c2cc1C(C)(F)F` [Compound C-16, N-[7-(1,1-difluoro-ethyl)-6-(2-isopropyl-2H-pyrazol-3-yl)-2,4-dioxo-1,4-dihydro-2H-quinazolin-3-yl]-methanesulfonamide]: in the test on mouse, the “In vivo orally active” value is on record as “Yes”. With `CC(C)c1cc2[nH]c(=O)n(NS(C)(=O)=O)c(=O)c2cc1-c1ccnn1C` [Compound C-7, N-[7-Isopropyl-6-(2-methyl-2H-pyrazol-3-yl)-2,4-dioxo-1,4-dihydro-2H-quinazolin-3-yl]-methanesulfonamide], the ED50 in the test on OF1 mice [1] came out at 6.9 mg/kg. The “In vivo orally active” value in the test on mouse is on record as “Yes”. The corresponding values for `Cn1nccc1-c1cc2c(=O)n(NS(C)(=O)=O)c(=O)[nH]c2cc1C(F)(F)F` [Compound C-18, N-[6-(2-Methyl-2H-pyrazol-3-yl)-2,4-dioxo-7-trifluoromethyl-1,4-dihydro-2H-quinazolin-3-yl]-methanesulfonamide] are 14.8 mg/kg and “Yes”.

Turning to `COC(C)c1cc2c(=O)n(NS(C)(=O)=O)c(=O)[nH]c2cc1C(F)(F)F` (stereo not drawn) [Compound A-2, N-[6-(1-Methoxy-ethyl)-2,4-dioxo-7-trifluoromethyl-1,4-dihydro-2H-quinazolin-3-yl]-methanesulfonamide], in the test with OF1 mice [1], the ED50 worked out at 6 mg/kg. Further, the “In vivo orally active” value in the test on mouse is on record as “Yes”. As to `CC(C)OC(C)c1cc2c(=O)n(NS(C)(=O)=O)c(=O)[nH]c2cc1C(F)(F)F` (stereo not drawn) [Compound A-4, N-[6-(1-Isopropoxy-ethyl)-2,4-dioxo-7-trifluoromethyl-1,4-dihydro-2H-quinazolin-3-yl]-methanesulfonamide], the 50% effective dose (ED50) in the test with OF1 mice [1] was determined as 15.6 mg/kg. Further, in the test with mouse, the “In vivo orally active” value is on record as “Yes”. The corresponding values for `CCc1cc2[nH]c(=O)n(NS(C)(=O)=O)c(=O)c2cc1-c1ccnn1CC` [Compound C-12, N-[7-Ethyl-6-(2-ethyl-2H-pyrazol-3-yl)-2,4-dioxo-1,4-dihydro-2H-quinazolin-3-yl]-methanesulfonamide] are 42.8 mg/kg and “Yes”. The corresponding values for `CCc1cc2[nH]c(=O)n(NS(C)(=O)=O)c(=O)c2cc1-c1ccnn1C` [Compound C-11, N-[7-Ethyl-6-(2-methyl-2H-pyrazol-3-yl)-2,4-dioxo-1,4-dihydro-2H-quinazolin-3-yl]-methanesulfonamide] are 6.1 mg/kg and “Yes”. With `CC(OC1CCCC1)c1cc2c(=O)n(NS(C)(=O)=O)c(=O)[nH]c2cc1C(F)(F)F` (stereo not drawn) [Compound A-14, N-[6-(1-Cyclopentyloxy-ethyl)-2,4-dioxo-7-trifluoromethyl-1,4-dihydro-2H-quinazolin-3-yl]-methanesulfonamide], the “In vivo orally active” value with mouse was “yes”. For the compound `Cn1nncc1-c1cc2c(=O)n(NS(C)(=O)=O)c(=O)[nH]c2cc1C(F)(F)F` [Comparative, N-(6-(1-methyl-1H-1,2,3-triazol-5-yl)-2,4-dioxo-7-trifluoromethyl-1,4-dihydro-2H-quinazolin-3-yl]-methanesulfonamide, reference compound], in the test on OF1 mice [1], the “MES-Test (1 h, po) % protection @ 50” value stood at 0% @ 50^. In addition, the “In vivo orally active” value in the test on mouse is listed as “No”.
